Literature values, collected in patent publication US20090105490A1, “Polymorphic forms of ramelteon and processes for preparation thereof” (priority 2007, published 2009).
Read-outs that look alike come from different tables or passages of the source.

Tests used:
[1] = target: melatonin MT1 receptor (Homo sapiens, UniProt P48039); details: melatonin receptor agonist
[2] = target: T1, melatonin MT2 receptor (Homo sapiens, UniProt P49286); details: melatonin receptor agonist
T1 sequence (P49286 1-362): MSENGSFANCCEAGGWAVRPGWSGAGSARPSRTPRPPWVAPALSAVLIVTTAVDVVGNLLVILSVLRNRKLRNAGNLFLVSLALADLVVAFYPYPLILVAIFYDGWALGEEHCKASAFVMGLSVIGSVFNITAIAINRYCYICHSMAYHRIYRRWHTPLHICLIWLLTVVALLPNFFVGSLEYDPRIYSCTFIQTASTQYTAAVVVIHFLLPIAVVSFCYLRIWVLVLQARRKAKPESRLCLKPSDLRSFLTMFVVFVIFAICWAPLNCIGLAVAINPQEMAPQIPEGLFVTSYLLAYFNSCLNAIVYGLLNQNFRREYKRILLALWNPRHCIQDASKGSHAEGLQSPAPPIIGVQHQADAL

[3] = system: MT3 receptor; details: MT1 and MT2 versus MT3

Chain of melatonin MT1 receptor (P48039 whole entry): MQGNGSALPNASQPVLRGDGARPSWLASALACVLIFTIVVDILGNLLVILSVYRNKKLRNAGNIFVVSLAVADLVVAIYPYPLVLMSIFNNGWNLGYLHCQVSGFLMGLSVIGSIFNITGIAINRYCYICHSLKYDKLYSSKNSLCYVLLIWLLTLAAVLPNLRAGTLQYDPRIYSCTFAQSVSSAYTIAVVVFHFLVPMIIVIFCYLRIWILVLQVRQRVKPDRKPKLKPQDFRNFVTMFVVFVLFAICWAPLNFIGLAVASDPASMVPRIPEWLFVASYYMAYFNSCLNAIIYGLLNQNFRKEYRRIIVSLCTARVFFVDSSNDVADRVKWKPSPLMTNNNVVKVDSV

- affinity for melatonin MT1 receptor [1]: high affinity
- affinity for melatonin MT2 receptor [2]: high affinity
- selectivity over the MT3 receptor [3]: selectivity over the MT3 receptor
- solubility (1-octanol): freely soluble
- solubility (DMSO): freely soluble
- solubility (aqueous buffers): slightly soluble
- solubility (ethanol): freely soluble
- solubility (methanol): freely soluble
- solubility (water): slightly soluble
SMILES: CCC(=O)NCC[C@@H]1CCc2ccc3c(c21)CCO3 [Ramelteon, (S)-N-[2-(1,6,7,8-tetrahydro-2H-indeno-[5,4-b]furan-8-yl)ethyl]propionamide]
